Measurements taken from ChEMBL document CHEMBL1201862, “PubChem BioAssay data set” (2004).
Calls of active or inactive are those of the source.

Tests used:
[1] = bead-based luminescence quenchers, dual-tagged ARNT – biochemical, AlphaScreen, cherry-pick, artefact control for ARNT-TACC3 interaction inhibitor project, dose response (AID 651705); type: functional;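 note: AlphaScreen bead proximity signal that flags compounds interfering with the detection technology; potency reflects signal decrease which marks the compound as an assay artifact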
[2] = target: Ras and Rab interactor 1/Tyrosine-protein kinase ABL1 (Homo sapiens, UniProt P00519+Q13671); type: functional;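 note: biochemical TR-FRET dose-response test measuring inhibition of binding between Rin1 and Abl proteins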
[3] = target: Photoreceptor-specific nuclear receptor (Homo sapiens, UniProt Q9Y5X4); type: functional, cell-based;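 note: CHO-S cells with Gal4-NCOR and VP16-NR2E3 two-hybrid luciferase reporter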
Cytochrome P450 2C19 = Cytochrome P450 2C19 (Homo sapiens, UniProt P33261); assay: Cytochrome panel assay with activity outcomes. Panel member name: p450-cyp2c19 Compounds with AC50 equal or less than 10 uM are considered active; type: functional; settings: read-out: AC50
[4] = inhibition of ARNT PAS-B/TACC3 complex formation – biochemical, AlphaScreen, cherry-picked samples, confirmation (AID 651703); type: functional, Homo sapiens;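 note: His-tagged ARNT PAS-B domain paired with GST-TACC3 E629A dimer coactivator fragment; potency of inhibitors that break up the complex and lower AlphaScreen signal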
Cytochrome P450 2D6 = Cytochrome P450 2D6 (Homo sapiens, UniProt P10635);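 note: CYP2D6 member of a cytochrome P450 panel assay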
Cytochrome P450 2C9 = Cytochrome P450 2C9 (Homo sapiens, UniProt P11712)
[5] = NIH-3T3 fibroblast cytotoxicity, dose response, cytotoxicity control, cell-based, fluorescence, Alamar Blue, secondary assay (AID 2327); type: functional;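 note: NIH-3T3 mouse fibroblasts cultured with fluconazole at 8 µg/mL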
[6] = fluconazole-exposed Candida albicans growth modulators – fluorescence, retest, confirmation (AID 2467); type: functional, cell-based
[7] = target: T1, Carboxy-terminal domain RNA polymerase II polypeptide A small phosphatase 1 (Homo sapiens, UniProt Q9GZU7); assay: CTDSP1 inhibitors, concentration-response, biochemical, absorbance readout, ultra-high-throughput screen actives (AID 540297); type: functional
T1 sequence (Q9GZU7 whole entry): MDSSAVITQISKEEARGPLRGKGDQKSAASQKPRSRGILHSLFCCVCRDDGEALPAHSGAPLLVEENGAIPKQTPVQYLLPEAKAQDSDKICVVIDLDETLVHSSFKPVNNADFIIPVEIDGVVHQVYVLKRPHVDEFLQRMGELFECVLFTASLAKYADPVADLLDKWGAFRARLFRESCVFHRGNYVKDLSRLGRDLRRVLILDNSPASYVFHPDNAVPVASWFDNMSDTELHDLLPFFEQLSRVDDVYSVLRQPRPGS

[8] = target: 26S proteasome non-ATPase regulatory subunit 14 (Homo sapiens, UniProt O00487); assay: inhibition of proteasome subunit RPN11 – biochemical, fluorescence polarization, uHTS hits, confirmation (AID 602368); type: functional
[9] = target: 72 kDa type IV collagenase (Homo sapiens, UniProt P08253); assay: Dose Response validation of uHTS RPN11 inhibitor hits using a MMP-2 Fluorescence assay.; type: functional
Prothrombin = Prothrombin (Bos taurus, UniProt P00735); assay: thrombin protease inhibitors – biochemical, fluorescence polarization, uHTS hits, dose response (AID 602369); type: functional
[10] = target: T2, Rac GTPase-activating protein 1 (Homo sapiens, UniProt Q9H0H5); assay: blockers of MgcRacGAP-driven Rac1 GTP hydrolysis – biochemical, ADP Hunter fluorescence, primary and confirmatory, confirmation (AID 624330); type: functional
T2 sequence (Q9H0H5 whole entry): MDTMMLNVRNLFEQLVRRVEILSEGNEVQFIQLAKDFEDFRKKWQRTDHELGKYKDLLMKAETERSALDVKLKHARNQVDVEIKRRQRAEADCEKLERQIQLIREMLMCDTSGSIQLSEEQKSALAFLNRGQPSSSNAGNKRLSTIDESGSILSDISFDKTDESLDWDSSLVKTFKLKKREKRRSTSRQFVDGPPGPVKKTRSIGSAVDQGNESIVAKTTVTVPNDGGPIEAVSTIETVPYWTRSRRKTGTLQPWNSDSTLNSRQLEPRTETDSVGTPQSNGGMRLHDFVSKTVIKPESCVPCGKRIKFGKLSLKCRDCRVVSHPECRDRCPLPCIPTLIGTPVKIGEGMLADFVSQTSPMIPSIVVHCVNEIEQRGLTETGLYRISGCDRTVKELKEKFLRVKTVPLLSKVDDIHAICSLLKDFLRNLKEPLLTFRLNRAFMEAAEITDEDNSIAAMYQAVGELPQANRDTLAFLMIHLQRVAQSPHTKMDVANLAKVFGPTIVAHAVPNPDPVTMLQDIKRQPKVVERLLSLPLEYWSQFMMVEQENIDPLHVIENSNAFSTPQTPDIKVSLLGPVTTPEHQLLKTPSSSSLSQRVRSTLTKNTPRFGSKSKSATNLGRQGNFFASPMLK

Cytochrome P450 2C19, sequence (P33261 whole entry, the tested form may be a part): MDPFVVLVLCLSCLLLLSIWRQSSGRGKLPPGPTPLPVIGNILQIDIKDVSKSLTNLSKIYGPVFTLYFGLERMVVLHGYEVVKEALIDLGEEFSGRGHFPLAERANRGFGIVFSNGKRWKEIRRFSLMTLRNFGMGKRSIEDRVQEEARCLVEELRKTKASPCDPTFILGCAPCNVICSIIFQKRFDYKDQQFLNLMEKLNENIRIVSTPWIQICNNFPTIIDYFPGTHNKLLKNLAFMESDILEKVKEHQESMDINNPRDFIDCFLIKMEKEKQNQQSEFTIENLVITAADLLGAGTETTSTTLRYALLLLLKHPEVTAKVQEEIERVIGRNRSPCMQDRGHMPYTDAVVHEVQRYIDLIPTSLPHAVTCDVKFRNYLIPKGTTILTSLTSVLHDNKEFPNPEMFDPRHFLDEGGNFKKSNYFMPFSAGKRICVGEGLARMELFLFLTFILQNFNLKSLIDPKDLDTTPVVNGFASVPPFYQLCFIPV
26S proteasome non-ATPase regulatory subunit 14, sequence (O00487 whole entry): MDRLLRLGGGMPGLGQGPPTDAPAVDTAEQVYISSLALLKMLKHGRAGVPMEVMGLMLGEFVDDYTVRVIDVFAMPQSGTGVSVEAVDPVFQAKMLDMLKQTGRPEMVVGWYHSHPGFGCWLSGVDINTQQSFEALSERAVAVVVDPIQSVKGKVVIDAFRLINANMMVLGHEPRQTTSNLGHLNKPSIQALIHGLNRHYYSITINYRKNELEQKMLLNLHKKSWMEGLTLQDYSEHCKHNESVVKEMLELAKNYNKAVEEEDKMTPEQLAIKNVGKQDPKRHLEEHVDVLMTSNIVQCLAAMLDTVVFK
Ras and Rab interactor 1/Tyrosine-protein kinase ABL1, sequence (P00519 whole entry, the tested form may be a part): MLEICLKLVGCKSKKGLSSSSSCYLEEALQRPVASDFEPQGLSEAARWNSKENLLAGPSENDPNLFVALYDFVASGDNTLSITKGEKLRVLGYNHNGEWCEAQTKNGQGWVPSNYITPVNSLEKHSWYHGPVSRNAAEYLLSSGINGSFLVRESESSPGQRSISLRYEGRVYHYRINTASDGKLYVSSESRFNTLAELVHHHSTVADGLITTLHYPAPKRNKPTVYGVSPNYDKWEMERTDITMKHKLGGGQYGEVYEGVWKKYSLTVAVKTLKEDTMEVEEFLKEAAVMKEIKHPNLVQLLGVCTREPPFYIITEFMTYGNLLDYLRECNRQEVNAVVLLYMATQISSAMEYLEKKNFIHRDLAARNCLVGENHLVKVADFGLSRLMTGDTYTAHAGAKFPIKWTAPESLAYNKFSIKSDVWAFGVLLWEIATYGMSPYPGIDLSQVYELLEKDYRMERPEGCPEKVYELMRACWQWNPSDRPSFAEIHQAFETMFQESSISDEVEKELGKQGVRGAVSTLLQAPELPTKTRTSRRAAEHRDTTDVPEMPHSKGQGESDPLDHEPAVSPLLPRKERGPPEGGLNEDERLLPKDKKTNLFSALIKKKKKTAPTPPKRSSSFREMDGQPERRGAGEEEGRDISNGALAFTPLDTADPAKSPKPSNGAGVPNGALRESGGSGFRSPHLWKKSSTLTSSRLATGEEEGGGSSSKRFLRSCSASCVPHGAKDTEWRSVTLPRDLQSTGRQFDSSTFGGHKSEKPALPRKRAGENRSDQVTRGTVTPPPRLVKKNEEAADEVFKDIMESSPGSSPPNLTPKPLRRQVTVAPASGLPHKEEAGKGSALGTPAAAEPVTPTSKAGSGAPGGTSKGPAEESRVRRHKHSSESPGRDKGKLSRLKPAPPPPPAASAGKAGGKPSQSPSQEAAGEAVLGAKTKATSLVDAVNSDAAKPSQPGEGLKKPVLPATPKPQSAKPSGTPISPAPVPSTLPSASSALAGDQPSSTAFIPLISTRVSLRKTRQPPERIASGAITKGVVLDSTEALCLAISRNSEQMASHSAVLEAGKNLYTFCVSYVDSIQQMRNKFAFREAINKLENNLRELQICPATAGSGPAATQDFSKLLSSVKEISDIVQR
Ras and Rab interactor 1/Tyrosine-protein kinase ABL1, sequence (Q13671 whole entry, the tested form may be a part): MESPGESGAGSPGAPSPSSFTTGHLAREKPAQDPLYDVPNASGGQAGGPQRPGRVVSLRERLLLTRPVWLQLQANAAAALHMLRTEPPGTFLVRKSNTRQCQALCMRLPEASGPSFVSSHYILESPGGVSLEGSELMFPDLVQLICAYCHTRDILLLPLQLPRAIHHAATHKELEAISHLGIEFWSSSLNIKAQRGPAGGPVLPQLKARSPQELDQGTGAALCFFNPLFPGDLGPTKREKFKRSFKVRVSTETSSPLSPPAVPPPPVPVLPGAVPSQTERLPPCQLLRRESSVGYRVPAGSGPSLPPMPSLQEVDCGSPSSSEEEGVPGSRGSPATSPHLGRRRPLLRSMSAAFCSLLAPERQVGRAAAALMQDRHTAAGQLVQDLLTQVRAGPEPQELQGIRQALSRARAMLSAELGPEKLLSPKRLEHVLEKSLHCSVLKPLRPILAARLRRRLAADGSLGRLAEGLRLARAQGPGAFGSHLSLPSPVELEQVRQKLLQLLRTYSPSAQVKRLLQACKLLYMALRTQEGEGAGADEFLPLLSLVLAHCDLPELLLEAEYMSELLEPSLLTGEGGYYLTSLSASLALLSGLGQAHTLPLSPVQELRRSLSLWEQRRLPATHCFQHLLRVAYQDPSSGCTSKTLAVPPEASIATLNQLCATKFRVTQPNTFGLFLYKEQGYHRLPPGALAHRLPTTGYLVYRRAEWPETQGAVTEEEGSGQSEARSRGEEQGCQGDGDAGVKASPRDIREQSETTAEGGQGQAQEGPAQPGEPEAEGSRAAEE
72 kDa type IV collagenase, sequence (P08253 whole entry): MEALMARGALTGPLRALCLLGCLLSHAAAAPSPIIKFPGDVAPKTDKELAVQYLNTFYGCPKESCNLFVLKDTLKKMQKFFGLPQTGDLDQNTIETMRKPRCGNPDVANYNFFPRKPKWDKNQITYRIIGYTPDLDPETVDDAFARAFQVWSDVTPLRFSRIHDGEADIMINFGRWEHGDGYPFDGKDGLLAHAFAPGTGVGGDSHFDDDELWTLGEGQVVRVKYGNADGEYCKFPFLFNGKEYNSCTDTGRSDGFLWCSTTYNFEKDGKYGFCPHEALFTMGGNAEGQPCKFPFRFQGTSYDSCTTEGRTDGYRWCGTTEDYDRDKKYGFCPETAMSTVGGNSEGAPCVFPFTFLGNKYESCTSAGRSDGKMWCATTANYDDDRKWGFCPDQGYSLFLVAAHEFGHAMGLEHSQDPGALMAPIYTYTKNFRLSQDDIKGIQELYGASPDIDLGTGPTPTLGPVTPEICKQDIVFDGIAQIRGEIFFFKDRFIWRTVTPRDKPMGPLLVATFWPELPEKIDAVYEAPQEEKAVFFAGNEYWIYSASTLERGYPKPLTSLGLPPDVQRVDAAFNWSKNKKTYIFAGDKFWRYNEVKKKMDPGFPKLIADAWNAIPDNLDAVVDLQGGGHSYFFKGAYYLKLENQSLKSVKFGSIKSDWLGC
Cytochrome P450 2C9, sequence (P11712 whole entry): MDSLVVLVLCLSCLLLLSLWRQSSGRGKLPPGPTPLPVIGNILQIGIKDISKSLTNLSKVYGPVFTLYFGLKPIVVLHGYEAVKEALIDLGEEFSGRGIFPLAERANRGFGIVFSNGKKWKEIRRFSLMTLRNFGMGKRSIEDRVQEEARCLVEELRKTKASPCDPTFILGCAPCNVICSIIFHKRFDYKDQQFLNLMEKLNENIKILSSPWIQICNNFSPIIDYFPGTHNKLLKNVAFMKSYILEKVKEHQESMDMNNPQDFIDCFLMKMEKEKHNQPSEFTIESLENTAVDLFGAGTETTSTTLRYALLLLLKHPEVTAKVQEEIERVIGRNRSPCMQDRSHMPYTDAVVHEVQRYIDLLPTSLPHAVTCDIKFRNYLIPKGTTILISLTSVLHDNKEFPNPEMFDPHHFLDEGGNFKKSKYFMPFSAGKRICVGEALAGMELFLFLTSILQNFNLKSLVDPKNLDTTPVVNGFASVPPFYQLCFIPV
Cytochrome P450 2D6, sequence (P10635 whole entry): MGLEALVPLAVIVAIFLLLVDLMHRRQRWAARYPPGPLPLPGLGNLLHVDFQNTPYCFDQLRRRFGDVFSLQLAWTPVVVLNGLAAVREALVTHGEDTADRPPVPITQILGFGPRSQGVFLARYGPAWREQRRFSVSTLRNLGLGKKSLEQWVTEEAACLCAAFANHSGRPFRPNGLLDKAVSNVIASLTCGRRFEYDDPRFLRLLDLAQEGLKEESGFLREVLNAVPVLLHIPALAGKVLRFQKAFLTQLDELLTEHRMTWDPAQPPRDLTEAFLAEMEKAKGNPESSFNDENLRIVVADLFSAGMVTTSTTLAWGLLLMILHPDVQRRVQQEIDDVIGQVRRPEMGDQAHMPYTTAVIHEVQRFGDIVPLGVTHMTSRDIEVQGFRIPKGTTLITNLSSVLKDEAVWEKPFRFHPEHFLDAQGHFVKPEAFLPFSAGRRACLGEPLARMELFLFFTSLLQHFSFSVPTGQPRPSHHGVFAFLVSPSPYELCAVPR
Photoreceptor-specific nuclear receptor, sequence (Q9Y5X4 whole entry, the tested form may be a part): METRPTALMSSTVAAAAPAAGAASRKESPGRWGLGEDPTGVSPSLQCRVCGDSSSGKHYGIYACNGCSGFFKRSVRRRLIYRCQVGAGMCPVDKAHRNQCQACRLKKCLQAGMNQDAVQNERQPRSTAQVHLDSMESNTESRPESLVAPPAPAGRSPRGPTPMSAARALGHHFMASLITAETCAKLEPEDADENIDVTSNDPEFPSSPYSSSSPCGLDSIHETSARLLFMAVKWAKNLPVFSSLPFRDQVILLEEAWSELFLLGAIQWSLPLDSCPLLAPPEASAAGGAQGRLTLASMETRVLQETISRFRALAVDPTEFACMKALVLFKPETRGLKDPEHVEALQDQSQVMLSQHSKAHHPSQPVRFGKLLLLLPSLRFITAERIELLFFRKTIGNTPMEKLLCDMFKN

With `Cc1ccccc1N1C(=O)NC(=O)/C(=C\NNC(=O)c2ccncc2)C1=O` the AC50 [1] was 114 µM (active).
In the case of `Cc1cc(NC(=O)CC(C)C)c(=O)n(Cc2ccccc2F)c1`, the AC50 [1] is reported as 130 µM (active).
For `CN(CCc1ccccc1)C(=O)c1ccc(NC(=O)Cc2ccc(NC(=O)C3CCN(C(=O)C4CCC4)CC3)cc2)cc1`, the IC50 [2] was 16.9 µM (inactive).
In the case of `O=C(Nc1cccc(OC(F)(F)F)c1)C1Cc2c(-c3ccc4c(c3)OCO4)ccnc2O1` (stereo not given), the IC50 [3] is reported as 3.19 µM (active).
With `CCCN(C(=O)Cc1n[nH]c(N)n1)C1(C(=O)Nc2ccccc2C)CCCCC1` the AC50 (Cytochrome P450 2C19) was 20 µM (inconclusive), the AC50 [4] was 90.8 µM (active) and the AC50 (Cytochrome P450 2D6) was 17.8 µM (inconclusive). The AC50 (Cytochrome P450 2C9) was 0.224 µM (inconclusive).
In the case of `COc1ccc(O)c(/C=N/NC(=O)c2c(C)nnn2-c2nonc2N)c1`, the EC50 [5] is reported as > 150 µM (inconclusive), the EC50 [6] is reported as > 38 µM (not active) and the IC50 [7] is reported as 6.12 µM (active). The IC50 [8] was 13.1 µM (active), the IC50 [9] was > 100 µM (inactive) and the IC50 (Prothrombin) was 54.6 µM (active). The IC50 [10] was 79.7 µM (active).
